For 79 molecules, RP-LC retention time results are on record in the METLIN SMRT retention time set (Domingo-Almenara et al. 2019).

A short description of the data set: gradient 5% acetonitrile 3 min, to 50% in 2 min, to 85% in 15 min, held 3 min, 100 µL/min. Conditions: column: Zorbax Extend-C18 2.1 x 50 mm; eluents: water / acetonitrile, 0.1% formic acid. Summed up:
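Mixtures of ~100 pure standards were chromatographed on a Zorbax Extend-C18 column (2.1 × 50 mm, 1.8 μm) at 100 μL/min using water and acetonitrile, each with 0.1% formic acid. Detection used a quadrupole time-of-flight mass spectrometer in positive and negative ionization mode, and data collection spanned 3 months. Retention time was obtained from adduct peaks picked computationally and each checked manually.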
Molecule `CC(C)N1CCC(CNC(=O)c2cccc3ccccc23)CC1` displayed an RP-LC retention time of 546 s.

For `COc1ccc(CN2C=C(C(=O)OCc3noc(-c4cccc(OC)c4)n3)C(C)=NS2(=O)=O)cc1`, the RP-LC retention time is 1120 s.

`COc1ccc(Cl)cc1S(=O)(=O)N1CCC(C(=O)NCCc2ccccc2)CC1` displayed an RP-LC retention time of 909 s.

For `COc1cccc(CNC(=O)C2CCCN(c3nnc4ccc(Cl)cn34)C2)c1` (centres undefined), the RP-LC retention time was found to be 756 s.

Molecule `Cc1cc(NCc2ccccn2)n2ncc(-c3ccccc3)c2n1` yielded an RP-LC retention time of 706 s.

On to `O=C(NC1CCN(c2cc(-c3ccc(F)cc3)[nH]n2)C1)c1cccc(Cl)c1` (centres undefined), for which the RP-LC retention time was found to be 774 s.

`CCN1C(=O)CN(C(=O)C2CCCC2)CC12CCOCC2` came in with an RP-LC retention time of 651 s.

The molecule `COc1ccc(C2(C(=O)N3CCC4(CC3)CN(C(C)C)C4c3ccccc3)CC2)cc1` (centres undefined) yielded an RP-LC retention time of 684 s.

For `Cc1cc(CNC(=O)C2(c3ccc(F)cc3)CC2)c(C)o1`, the RP-LC retention time is 900 s.

In turn, `COC(=O)C1C(=O)C2=C(CC1C)NC(=O)CC2c1cccc(OC)c1` (centres undefined) yielded an RP-LC retention time of 726 s.

Take `C=CCOC(=O)/C=C\C(=O)NC(N)=O`: the RP-LC retention time amounted to 659 s.

Regarding `COCCNC(=O)c1nc(-c2ccnc(N3CCC(C)CC3)c2)no1`, the RP-LC retention time was determined as 670 s.

On to `O=C(c1ccccc1C(F)(F)F)N1CCc2nc(-c3ccc(F)cc3)ncc2C1`, for which the RP-LC retention time was 1020 s.

`COc1ccc(NS(=O)(=O)c2cn(C(C)C)c3ncccc23)cc1Cl`: the RP-LC retention time came out at 908 s.

In turn, `CSc1cccc(NC(=O)Cn2cccc(-c3nc(-c4ccc(F)cc4)no3)c2=O)c1` gave an RP-LC retention time of 939 s.

In the case of `CCC(=O)N1CCN(C(=O)c2ccccc2)CC1`, the RP-LC retention time is 693 s.

Regarding `C=CCNC(=O)c1nnn(Cc2ccc(C)cc2)c1-n1cccc1`, the RP-LC retention time came out at 966 s.

In turn, `CC1(C)COc2ccc(NC(=O)NCc3cccc4ccccc34)cc2NC1=O` came in with an RP-LC retention time of 602 s.

Molecule `Cc1ccc(Sc2nccnc2N2CCCC(C(=O)NCc3ccccc3C)C2)cc1` (centres undefined) showed an RP-LC retention time of 1150 s.

Regarding `COc1ccc(S(=O)(=O)N2CCC(c3noc(-c4cccnc4)n3)C2)cc1` (centres undefined), the RP-LC retention time was determined as 793 s.

In turn, `CN1C(=O)COc2ccc(-c3csc(NC(=O)c4ccc(Br)cc4)n3)cc21` gave an RP-LC retention time of 1040 s.

The molecule `Clc1ccc(Cl)c(-c2ccc(CNCC3CCCO3)o2)c1` (centres undefined) showed an RP-LC retention time of 699 s.

Turning to `CCc1nc(-c2csc(S(=O)(=O)N3CCCC(C(=O)Nc4cc(C)ccc4C)C3)c2)no1` (centres undefined), the RP-LC retention time came out at 1090 s.

As to `Cn1nc(-c2nnc(-c3ccccc3)o2)c2c1CCN(S(=O)(=O)c1cccc(C(F)(F)F)c1)C2`, the RP-LC retention time was determined as 981 s.

Take `CCN(Cc1ccccc1)C(=O)Cn1cc2c(n1)CCCCCC2`: the RP-LC retention time amounted to 1020 s.

Molecule `CCOC(=O)c1csc(NC(=O)CC[C@H]2NC(=O)c3ccccc3NC2=O)n1` returned an RP-LC retention time of 648 s.

For `O=C(NC1CC1)c1ccc(OCC2CCCN2C(=O)c2c(F)cccc2F)cc1` (centres undefined), the RP-LC retention time was determined as 741 s.

`CCc1ccc(-c2csc(NC(=O)c3ccc(S(=O)(=O)N4CCCCC4)cc3)n2)cc1` gave an RP-LC retention time of 1260 s.

Turning to `Cc1cc2n(n1)CCCN2C(=O)CCC(=O)NC1CCN(Cc2ccccc2)CC1`, the RP-LC retention time worked out at 579 s.

In turn, `O=C(NCCC1CCN(C(=O)Nc2ccccc2F)CC1)c1ccco1` came in with an RP-LC retention time of 1170 s.

The molecule `CCS(=O)(=O)N1CC(=O)N(c2cc(C)ccc2C)C(C)(C(=O)NCc2ccccc2)C1` (centres undefined) displayed an RP-LC retention time of 807 s.

In turn, `COc1ccccc1CNc1c(-c2ccc(OC(C)C)cc2)nc2ncccn12` came in with an RP-LC retention time of 826 s.

`O=C(Nc1ccc2c(c1)OCCO2)N1CCC(N2CCN(Cc3ccc(F)cc3)C2=O)CC1`: the RP-LC retention time worked out at 773 s.

`O=C(CSc1nnc(NC(=O)C2CCCCC2)s1)Nc1nccs1` registered an RP-LC retention time of 747 s.

For the molecule `Nc1nc(Nc2ccccc2F)nc2cccc(F)c12`, the RP-LC retention time was determined as 615 s.

Molecule `COc1cc(-c2nc3cccc(C)n3c2Nc2ccc(C)cc2)ccc1O` gave an RP-LC retention time of 989 s.

For `CC(C)c1ccc(S(=O)(=O)N2CCC(C(=O)NCCc3csc(-c4ccccc4)n3)CC2)cc1`, the RP-LC retention time turned out to be 1080 s.

`O=C(Nc1cccc(Cl)c1)c1cnn2c1CCCC2` registered an RP-LC retention time of 814 s.

As to `CSc1ccc(C(C(C(=O)c2ccco2)N2CCOCC2)N2CCOCC2)cc1` (centres undefined), the RP-LC retention time amounted to 698 s.

`Cc1scc2nc(C(=O)Nc3ccccc3)nc(N(C)C)c12`: the RP-LC retention time was 658 s.

With `Cc1nc(C2CCN(C(=O)CCc3c[nH]c4ccccc34)CC2)n[nH]1`, the RP-LC retention time is 603 s.

For the molecule `COc1ccc(CNC(=O)Cn2nc3c(Oc4ccccc4C)nccn3c2=O)cc1`, the RP-LC retention time amounted to 957 s.

In turn, `O=C(Nc1cc(F)ccc1F)Nc1c(-c2ccccc2)nc2ccccn12` had an RP-LC retention time of 677 s.

With `O=C(NC1CCCC1)N1CCCCC1c1nncn1-c1ccccc1` (centres undefined), the RP-LC retention time was 602 s.

In turn, `O=C(CC1CCN(S(=O)(=O)c2ccc(Cl)s2)CC1)N1CCN(c2ncccn2)CC1` showed an RP-LC retention time of 872 s.

In turn, `CCOc1cc(-c2ccccc2)nc2ccc(NS(=O)(=O)c3ccc(NC(C)=O)cc3)cc12` came in with an RP-LC retention time of 669 s.

`O=C(Nc1ccccc1)C1CCN(C(=O)C2Sc3ccccc3NC2=O)CC1` (centres undefined) gave an RP-LC retention time of 731 s.

For the molecule `CN1C(=O)c2cc(C(=O)NCc3ccccc3F)nn2CC1(C)C(=O)NCc1ccccc1` (centres undefined), the RP-LC retention time worked out at 697 s.

Molecule `O=C(Nc1cccc(C(F)(F)F)c1)N1CCN(c2ccc(Nc3cccnc3)nn2)CC1` had an RP-LC retention time of 566 s.

For the molecule `Cc1nc(-c2ccc(N3CCN(C(=O)c4cccc(F)c4)CC3)nc2)sc1C`, the RP-LC retention time was 921 s.

In the case of `CCc1nc(N)n(CC(=O)Nc2cc(C)ccc2C)c(=O)c1C`, the RP-LC retention time came to 643 s.

For `CC(=O)N1c2ccc(S(=O)(=O)N3CCCCCC3)cc2CC1C(=O)NCCCc1ccccc1` (centres undefined), the RP-LC retention time was 975 s.

In turn, `Cc1ccc2c(Nc3cccc(C(F)(F)F)c3)c(C(=O)N3CCOCC3)cnc2n1` displayed an RP-LC retention time of 573 s.

As to `COc1ccc(NC(=O)c2cnc3c(c2)c(=O)n(C)c(=O)n3-c2ccc(C)cc2)cc1OC`, the RP-LC retention time was found to be 836 s.

In the case of `COc1ccc(-c2noc(-c3nnn4c3COC(c3ccc(Cl)cc3)C4)n2)cc1` (centres undefined), the RP-LC retention time stood at 1190 s.

`CCOc1ccc(NS(=O)(=O)c2cc(-c3nc(C(C)(C)C)cs3)cs2)cc1` displayed an RP-LC retention time of 1240 s.

`Cc1ccc(CNC(=O)Cn2c(C)cc(-c3nnc(-c4ccc(F)cc4)o3)c2C)cc1`: the RP-LC retention time is 982 s.

In turn, `Cc1cc(Nc2ccccc2)nc(N2CCN(C(=O)Nc3ccc(Cl)cc3)CC2)n1` had an RP-LC retention time of 761 s.

In turn, `COc1ccccc1CN1CCN(C(=O)C2CCc3nc(N4CCCCC4)ncc3C2)CC1` (centres undefined) showed an RP-LC retention time of 623 s.

In turn, `O=C(NCc1ccccc1Cl)c1nc(Cn2c(=O)oc3ccccc32)no1` registered an RP-LC retention time of 946 s.

`Cn1nnnc1SCCNCc1ccc(Cl)cc1Cl` displayed an RP-LC retention time of 596 s.

Regarding `COc1ccc(-c2nc3cnccn3c2Nc2cccc(C)c2C)cc1`, the RP-LC retention time amounted to 953 s.

For `CSc1cccc(NC(=O)N2CCC(C)(C(=O)NCc3ccc(F)cc3)CC2)c1`, the RP-LC retention time amounted to 884 s.

Turning to `CCC(=O)N(C1CCOCC1)C1CCN(S(=O)(=O)c2ccccc2F)CC1`, the RP-LC retention time worked out at 797 s.

As to `CCn1cc(CN2CCCC(Cn3cc(COC)nn3)C2)c2cc(OC)ccc21` (centres undefined), the RP-LC retention time is 637 s.

For the molecule `COc1ccc(-c2noc(C3(NC(=O)c4ccc(F)cc4)CCCCC3)n2)cc1`, the RP-LC retention time worked out at 1150 s.

Consider `CC1CCN(C(=O)c2cc(S(=O)(=O)N3CCC(C(=O)N4CCCCCC4)CC3)cn2C)CC1`, for which the RP-LC retention time was determined as 839 s.

In turn, `Cc1ccc2cc(CCC(=O)NCCCN(C)C)c(=O)[nH]c2c1` returned an RP-LC retention time of 577 s.

In turn, `Cc1ccccc1CNC(=O)CN1C(=O)CSc2cccn2-c2ccccc21` gave an RP-LC retention time of 916 s.

`Cc1ccc(-c2nnc(-c3nc(NCCc4ccco4)c4ccccc4n3)o2)cc1` came in with an RP-LC retention time of 1030 s.

`COc1ccc2c(c1)c(CN1CCCCCCN(C)C(=O)[C@@H]3CCC[C@@H]31)cn2C`: the RP-LC retention time worked out at 721 s.

Consider `Cc1ccc(-c2noc(-c3ccccc3S(=O)(=O)N3CCN(c4ncccn4)CC3)n2)cc1`, for which the RP-LC retention time came to 1160 s.

Molecule `Cc1nc2cc3c(cc2n1CC(=O)NCC1CCCO1)OCCO3` (centres undefined) had an RP-LC retention time of 567 s.

Molecule `Cc1cc2nc(Nc3nc(SCc4ccc(Cl)cc4)cc(=O)[nH]3)nc(C)c2cc1C` yielded an RP-LC retention time of 1110 s.

`O=C(NCc1csc(C2CCCN(C(=O)c3cc(F)ccc3Cl)C2)n1)C1CC1` (centres undefined) gave an RP-LC retention time of 750 s.

Molecule `Cc1cccc(N2CCN(Cc3nc(-c4ccc(N5CCOCC5)nc4)no3)CC2)c1C` had an RP-LC retention time of 945 s.

In the case of `COc1ccc2c(C)c(CC(=O)N3CCC(C(N)=O)CC3)c(=O)oc2c1C`, the RP-LC retention time came to 661 s.

Molecule `Cn1cc2nc(SCc3cc(F)cc(F)c3)n(Cc3ccc(F)cc3)c(=O)c2n1` registered an RP-LC retention time of 1070 s.

For the molecule `O=C(Nc1cccc(-c2nccnc2N2CCOCC2)c1)Nc1ccc(F)c(Cl)c1`, the RP-LC retention time was determined as 868 s.
